In ChEMBL document CHEMBL4402545, “Subtype Selective γ-Aminobutyric Acid Type A Receptor (GABAAR) Modulators Acting at the Benzodiazepine Binding Site: An Update” (J Med Chem, 2020) one finds Ki, Efficacy and Occ50 data, which are given here for 1 compound.

Assay [1] deals with T1, Gamma-aminobutyric acid receptor subunit alpha-2 (Homo sapiens, UniProt P47869).
T1 sequence (P47869 whole entry): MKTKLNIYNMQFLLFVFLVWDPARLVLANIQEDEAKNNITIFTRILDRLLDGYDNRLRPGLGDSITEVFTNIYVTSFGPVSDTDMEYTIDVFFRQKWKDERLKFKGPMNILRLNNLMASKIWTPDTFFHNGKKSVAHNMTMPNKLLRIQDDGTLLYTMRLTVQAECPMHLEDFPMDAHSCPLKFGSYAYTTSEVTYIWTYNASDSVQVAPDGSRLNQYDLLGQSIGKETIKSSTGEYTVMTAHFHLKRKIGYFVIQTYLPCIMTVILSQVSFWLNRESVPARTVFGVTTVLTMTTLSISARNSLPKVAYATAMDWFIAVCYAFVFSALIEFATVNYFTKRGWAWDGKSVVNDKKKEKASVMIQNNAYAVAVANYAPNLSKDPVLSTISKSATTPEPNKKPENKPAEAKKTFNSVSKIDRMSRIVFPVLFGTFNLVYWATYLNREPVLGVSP
As to the kind of experiment: Binding affinity to GABA-A alpha2 (unknown origin).

The target of assay [2] is T2, Gamma-aminobutyric acid receptor subunit alpha-1 (Homo sapiens, UniProt P14867).
T2 sequence (P14867 whole entry): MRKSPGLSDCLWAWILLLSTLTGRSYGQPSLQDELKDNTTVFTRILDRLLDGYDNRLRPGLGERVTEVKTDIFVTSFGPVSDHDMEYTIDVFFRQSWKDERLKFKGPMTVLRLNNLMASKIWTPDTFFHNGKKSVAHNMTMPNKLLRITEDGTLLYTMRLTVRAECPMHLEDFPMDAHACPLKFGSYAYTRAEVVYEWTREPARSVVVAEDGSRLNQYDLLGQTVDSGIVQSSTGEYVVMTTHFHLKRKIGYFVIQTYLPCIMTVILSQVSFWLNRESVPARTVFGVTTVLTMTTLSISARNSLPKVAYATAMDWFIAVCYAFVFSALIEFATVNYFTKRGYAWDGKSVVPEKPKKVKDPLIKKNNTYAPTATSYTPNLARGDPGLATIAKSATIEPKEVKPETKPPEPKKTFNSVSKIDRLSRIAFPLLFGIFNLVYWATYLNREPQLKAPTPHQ
The experiment in a line: Binding affinity to GABA-A alpha1 (unknown origin).

For assay [3], the target named is T3, Gamma-aminobutyric acid receptor subunit alpha-3 (Homo sapiens, UniProt P34903).
T3 sequence (P34903 whole entry): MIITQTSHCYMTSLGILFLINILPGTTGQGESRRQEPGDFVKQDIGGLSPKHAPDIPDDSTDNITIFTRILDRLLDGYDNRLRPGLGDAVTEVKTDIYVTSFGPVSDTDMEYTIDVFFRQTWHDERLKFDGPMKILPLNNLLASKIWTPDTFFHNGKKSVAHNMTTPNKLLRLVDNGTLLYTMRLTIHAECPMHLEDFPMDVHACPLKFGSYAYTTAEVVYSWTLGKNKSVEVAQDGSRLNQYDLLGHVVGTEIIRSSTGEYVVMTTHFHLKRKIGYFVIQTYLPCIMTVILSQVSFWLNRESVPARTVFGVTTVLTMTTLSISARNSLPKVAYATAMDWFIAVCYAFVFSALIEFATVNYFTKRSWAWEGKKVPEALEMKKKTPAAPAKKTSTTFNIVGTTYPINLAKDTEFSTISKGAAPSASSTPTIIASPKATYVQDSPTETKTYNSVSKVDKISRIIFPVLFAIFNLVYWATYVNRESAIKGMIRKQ
The experiment in a line: Binding affinity to GABA-A alpha3 (unknown origin).

In assay [4] the target is T4, Gamma-aminobutyric acid receptor subunit alpha-1 (Homo sapiens) (UniProt P14867).
T4 sequence (whole entry): T2 sequence (P14867 whole entry)
The experiment in a line: Negative allosteric modulation of GABA-A alpha1 (unknown origin) assessed as reduction in DMCM induced current relative to control.

Assay [5] addresses T5, Gamma-aminobutyric acid receptor subunit alpha-2 (Homo sapiens) (UniProt P47869).
T5 sequence (whole entry): T1 sequence (P47869 whole entry)
As to the kind of experiment: Binding affinity to GABA-A alpha2 (unknown origin) assessed as reduction in DMCM induced current relative to control.

For assay [6], the target named is T6, Gamma-aminobutyric acid receptor subunit alpha-3 (Homo sapiens) (UniProt P34903).
T6 sequence (whole entry): T3 sequence (P34903 whole entry)
The experiment in a line: Binding affinity to GABA-A alpha3 (unknown origin) assessed as reduction in DMCM induced current relative to control.

The test system of the next assay is Rattus norvegicus. As to the kind of experiment: In vivo receptor occupancy at GABAA receptor in po dosed Crl:CD Sprague-Dawley rat assessed as brain concentration causing 50% reduction in [3H]-Ro15-4513 receptor labeling after 1 hr. It counts as functional.

For orientation: Ki means a dissociation constant, usually derived from enzyme kinetics or from competition with a known ligand. Low values mean higher affinity, high ones lower affinity. Regarding `Cc1c(F)c(Nc2ccc(-c3cn(C)cn3)cn2)cc2c1ncn2CC1CC1`, the results for the Ki in assay [1], in assay [2] and in assay [3] were 32 nM, 140 nM and 24 nM, respectively. Moreover, the Efficacy in assay [4], in assay [5] and in assay [6] was 0% throughout. The Occ50 with Rattus norvegicus worked out at 1.9 mg/kg.
